Measured values from patent publication US5364861A, “Optical isomers of 7-[3-(1,1-dialkylmethyl-1-amino-1-pyrrolidinyl]-quinolones and naphthyridones as antibacterial agents” (Warner-Lambert Company, priority 1993, dated 1994).
≈ marks a conversion by molar mass, not a printed value. Where two headings read alike, the source gives them in different places.

Assays:
Ent. cloacae MA2646 = experiment: in vitro antibacterial activity, microtitration dilution (MIC), Ent. cloacae MA2646; type: cell-based; settings: Enterobacter cloacae, read-out: minimum inhibiting concentration (MIC)
Description: (§1) The in vitro antibacterial activity is obtained when tested by the microtitration dilution method as described in Heifetz, et al., Antimicr. Agents & Chemother. 1974;6:124, which is incorporated herein by reference.
(§2) By use of the above methods, the following minimum inhibiting concentration values (MICs in μg/ml), PD50 's in mg/kg, no effect phototoxicity dose in mg/kg and the cytotoxicity IC50 in μg/mL were obtained for representative enantiomers of the invention and compounds of the prior art as shown in the table.

Esch. coli Vogel [1] = experiment: in vitro antibacterial activity, microtitration dilution (MIC), Esch. coli Vogel; type: cell-based; settings: Escherichia coli, read-out: minimum inhibiting concentration (MIC)
Description: as §1, §2

Klebs. pneumoniae MGH-2 = experiment: in vitro antibacterial activity, microtitration dilution (MIC), Klebs. pneumoniae MGH-2; type: cell-based; settings: Klebsiella pneumoniae, MGH2, read-out: minimum inhibiting concentration (MIC)
Description: as §1, §2

Prot. rettgeri M 1771 = experiment: in vitro antibacterial activity, microtitration dilution (MIC), Prot. rettgeri M 1771; type: cell-based; settings: Providencia rettgeri, M1771, read-out: minimum inhibiting concentration (MIC)
Description: as §1, §2

Pseud. aeruginosa UI-18 [2] = experiment: in vitro antibacterial activity, microtitration dilution (MIC), Pseud. aeruginosa UI-18; type: cell-based; settings: Pseudomonas aeruginosa, UI18, read-out: minimum inhibiting concentration (MIC)
Description: as §1, §2

Staph. aureus H 228 = experiment: in vitro antibacterial activity, microtitration dilution (MIC), Staph. aureus H 228; type: cell-based; settings: Staphylococcus aureus, H228, read-out: minimum inhibiting concentration (MIC)
Description: as §1, §2

Staph. aureus UC-76 = experiment: in vitro antibacterial activity, microtitration dilution (MIC), Staph. aureus UC-76; type: cell-based; settings: Staphylococcus aureus, UC76, read-out: minimum inhibiting concentration (MIC)
Description: as §1, §2

Strep. faecalis MGH-2 = experiment: in vitro antibacterial activity, microtitration dilution (MIC), Strep. faecalis MGH-2; type: cell-based; settings: Enterococcus faecalis, MGH2, read-out: minimum inhibiting concentration (MIC)
Description: as §1, §2

Strep. pneumoniae SV-1 [3] = experiment: in vitro antibacterial activity, microtitration dilution (MIC), Strep. pneumoniae SV-1; type: cell-based; settings: Streptococcus pneumoniae, SV1, read-out: minimum inhibiting concentration (MIC)
Description: as §1, §2

Strep. pyogenes C-203 [4] = experiment: in vitro antibacterial activity, microtitration dilution (MIC), Strep. pyogenes C-203; type: cell-based; settings: Streptococcus pyogenes, C203, read-out: minimum inhibiting concentration (MIC)
Description: as §1, §2

Esch. coli Vogel [5] = experiment: median protective dose in mice given lethal systemic infection, Esch. coli; type: in vivo; settings: Escherichia coli, single dose at time of challenge, route not given, read-out: median protective dose (PD50)
Experimental: (§3) The in vivo activity is obtained when the compounds are tested according to the procedure of Miller, et al (Proc. Soc. Exp. Biol. Med. 1944;57:261). The median protective dose (PD50) was determined in mice given lethal systemic infections. Single doses of compound were given at time of challenge.
as §2
(§4) The in vivo data as PD50 's are reported below the line of MICs for the same compound.

Pseud. aeruginosa UI-18 [6] = experiment: median protective dose in mice given lethal systemic infection, Pseud. aeruginosa; type: in vivo; settings: Pseudomonas aeruginosa, UI18, Pseud. aeruginosa, single dose at time of challenge, route not given, read-out: median protective dose (PD50)
Experimental: as §3, §2, §4

Strep. pneumoniae SV-1 [7] = experiment: median protective dose in mice given lethal systemic infection, Strep. pneumoniae; type: in vivo; settings: Streptococcus pneumoniae, SV1, Strep. pneumoniae, single dose at time of challenge, route not given, read-out: median protective dose (PD50)
Experimental: as §3, §2, §4

Strep. pyogenes C-203 [8] = experiment: median protective dose in mice given lethal systemic infection, Strep. pyogenes; type: in vivo; settings: Streptococcus pyogenes, C203, Strep. pyogenes, single dose at time of challenge, route not given, read-out: median protective dose (PD50)
Experimental: as §3, §2, §4

in vivo = experiment: in vivo; parameters: species or system mice; settings: mouse, po
Experimental: The phototoxicity data is obtained using depilated mice. Compound was administered orally each day for four successive days, followed each day by 3 hours of […] radiation. The mice were examined for any positive signs (redness, erythema) relative to control animals. The no effect dose and the 50% effect dose were determined. By use of the above methods, the following minimum inhibiting concentration values (MICs in μg/ml), PD50 's in mg/kg, no effect phototoxicity dose in mg/kg and the cytotoxicity IC50 in μg/mL were obtained for representative enantiomers of the invention and compounds of the prior art as shown in the table.

[9] = cytotoxicity, colony reduction of hamster V-79 cells; type: cell-based; settings: 3 hours treatment, colonies counted after 5 days, read-out: cytotoxicity IC50 (Cytotox)
Experimental: The cytotoxicity data is obtained using hamster V-79 cells. The cells were suspended in tissue culture medium and grown overnight. Cells were treated with drug for 3 hours, washed free of drug and then replated, and the colonies counted after 5 days. The concentration of drug that reduced colonies by 50% relative to control was recorded.
as §2

## CC(C)(N)[C@@H]1CCN(c2nc3c(cc2F)c(=O)c(C(=O)O)cn3C2CC2)C1 [Example 4]
Ent. cloacae MA2646
  MIC: 0.1 µg/mL (≈ 0.267 µM)
Esch. coli Vogel [1]
  MIC: 0.05 µg/mL (≈ 0.134 µM)
Klebs. pneumoniae MGH-2
  MIC: 0.2 µg/mL (≈ 0.534 µM)
Prot. rettgeri M 1771
  MIC: 0.4 µg/mL (≈ 1.07 µM)
Pseud. aeruginosa UI-18 [2]
  MIC: 1.6 µg/mL (≈ 4.27 µM)
Staph. aureus H 228
  MIC: 0.05 µg/mL (≈ 0.134 µM)
Staph. aureus UC-76
  MIC: 0.003 µg/mL (≈ 0.00801 µM)
Strep. faecalis MGH-2
  MIC: 0.05 µg/mL (≈ 0.134 µM)
Strep. pneumoniae SV-1 [3]
  MIC: 0.006 µg/mL (≈ 0.016 µM)
Strep. pyogenes C-203 [4]
  MIC: 0.013 µg/mL (≈ 0.0347 µM)
Esch. coli Vogel [5]; first line below the MICs
  ED50: 5 mg/kg
Esch. coli Vogel [5]; second line below the MICs
  ED50: 1 mg/kg
Pseud. aeruginosa UI-18 [6]; first line below the MICs
  ED50: 50 mg/kg
Pseud. aeruginosa UI-18 [6]; second line below the MICs
  ED50: 22 mg/kg
Strep. pneumoniae SV-1 [7]; first line below the MICs
  ED50: 5 mg/kg
Strep. pneumoniae SV-1 [7]; second line below the MICs
  ED50: 2 mg/kg
Strep. pyogenes C-203 [8]; first line below the MICs
  ED50: 4 mg/kg
Strep. pyogenes C-203 [8]; second line below the MICs
  ED50: 1 mg/kg
In vivo
  NOAEL: 30 mg/kg
[9]
  CC50 at 3 h: 130 µg/mL (≈ 347 µM)
